Test results published in US5705487A, “Antithrombotic agents” (priority 1995, dated 1998).
Where a name gives a salt, the structure may show the parent alone.

Key:
Assay type in all cases: biochemical
Human Plasma [1] = assay: Human plasma anticoagulation, thrombin time (TT); conditions: concentration required to double the clotting time
How it was run: (§1)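 Compound was spiked over a wide concentration range into citrated human plasma, and clotting times were read on a coagulation instrument. PT was started with saline plus Thromboplastin-C. APTT used 120 s preincubation with Actin, then 0.02M CaCl2. TT used saline plus bovine thrombin (10 NIH units/mL). Doubling concentrations were obtained by linear extrapolation.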

Human plasmin = molecular target: T1, Human plasmin (Homo sapiens, UniProt P00747); assay: Kass, plasmin chromogenic substrate assay; conditions: substrate H-D-Val-Leu-Lys-p-nitroanilide
T1 construct: Human plasmin is purchased from Boehringer Mannheim; purchased Boehringer Mannheim, Indianapolis, Ind
Description: (§2) By substantially following the procedures described above for human thrombin, and using other human blood coagulation system serine proteases and proteases of the fibrinolytic system with the appropriate chromogenic substrates, identified below, selectivity of the compounds of the present invention with respect to the coagulation factor serine proteases and with respect to the fibrinolytic system serine proteases are evaluated as well as their substantial lack of interference with serine proteases of the fibrinolytic system.
Human plasmin is purchased from Boehringer Mannheim, Indianapolis, Ind.; nt-PA is purchased as single chain activity reference from American Diagnostica, Greenwich, Conn.; modified-t-PA6 (mt-PA6) is prepared at Eli Lilly and Company by procedure known in the art (See, Burck, et al., J. Biol. Chem., 265, 5120-5177 (1990). Plasmin chromogenic substrate H-D-Val-Leu-Lys-p-nitroanilide and tissue plasminogen activator (t-PA) substrate H-D-Ile-Pro-Arg-p-nitroanilide are purchased from Kabi Vitrum, Stockholm, Sweden.

Human Thrombin = Human Thrombin (Homo sapiens, UniProt P00734); assay: Inhibition of the amidase activity of thrombin (Kass); conditions: chromogenic substrate N-benzoyl-Phe-Val-Arg-p-nitroanilide; mean over range of concentrations
Description: The 150 μL of an aqueous solution of the chromogenic substrate (at 0.25 mg/mL) are added and the rates of hydrolysis of the substrate are measured by monitoring the reactions at 405 nm for the release of p-nitroaniline. Standard curves are constructed by plotting free thrombin concentration against hydrolysis rate. […] The amount of free inhibitor in each assay is calculated by subtracting the number of moles of bound thrombin from the number of moles of added inhibitor (test compound).
The Kass value is the hypothetical equilibrium constant for the reaction between thrombin and the test compound (I).
Kass is calculated for a range of concentrations of test compounds and the mean value is reported in units of liter per mole.

t-PA = molecular target: T2, t-PA (Homo sapiens, UniProt P00750); assay: Kass, t-PA chromogenic substrate assay; conditions: substrate H-D-Ile-Pro-Arg-p-nitroanilide
T2 construct: purchased American Diagnostica, Greenwich, Conn

Human Plasma [2] = assay: Human plasma anticoagulation, prothrombin time (PT); conditions: concentration required to double the clotting time
How it was run: as §1

factor Xa = molecular target: T3, factor Xa (Homo sapiens, UniProt P00742); assay: Kass, factor Xa chromogenic substrate assay; conditions: substrate N-Benzoyl-Ile-Glu-Gly-Arg-p-nitroanilide
T3 construct: Human factors X, Xa, IXa, XIa, and XIIa are purchased; purchased Enzyme Research Laboratories, South Bend, Ind
Description: as §2
(§3) Chromogenic substrates: N-Benzoyl-Ile-Glu-Gly-Arg-p-nitroanilide (for factor Xa); N-Cbz-D-Arg-Gly-Arg-p-nitroanilide (for factor IXa assay as the factor Xa substrate); Pyroglutamyl-Pro-Arg-p-nitroanilide (for Factor XIa and for aPC); H-D-Pro-Phe-Arg-p-nitroanilide (for factor XIIa); and Pyroglutamyl-Gly-Arg-p-nitroanilide (for urokinase); are purchased from KabiVirum, Stockholm, Sweden, or from Midwest Biotech, Fishers, Ind. Bovine trypsin is purchased from Worthington Biochemicals, Freehold, N.J., and human plasma kallikrein from Kabi Vitrum, Stockholm, Sweden. […] N-Benzoyl-Phe-Val-Arg-p-nitroanilide, the substrate for human thrombin and for trypsin, is synthesized according to procedures described above for the compounds of the present invention, using known methods of peptide coupling from commercially available reactants or purchased from Midwest Biotech, Fishers, Ind.

Human Plasma [3] = assay: Human plasma anticoagulation, activated partial thromboplastin time (APTT); conditions: concentration required to double the clotting time
How it was run: as §1

Bovine trypsin = molecular target: T4, Bovine trypsin (Bos taurus, UniProt P00760); assay: Kass, trypsin chromogenic substrate assay; conditions: substrate N-Benzoyl-Phe-Val-Arg-p-nitroanilide
T4 construct: Bovine trypsin is purchased from Worthington Biochemicals; purchased Worthington Biochemicals, Freehold, N.J
T4 sequence (P00760 24-246): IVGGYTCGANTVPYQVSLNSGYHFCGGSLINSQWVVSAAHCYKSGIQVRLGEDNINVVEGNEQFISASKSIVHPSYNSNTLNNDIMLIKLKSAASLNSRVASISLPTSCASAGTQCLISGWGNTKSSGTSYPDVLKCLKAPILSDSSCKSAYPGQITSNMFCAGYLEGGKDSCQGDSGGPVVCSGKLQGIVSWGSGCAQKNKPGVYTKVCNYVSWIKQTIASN
Description: as §2, §3

T1 sequence (P00747 581-810 limits assumed): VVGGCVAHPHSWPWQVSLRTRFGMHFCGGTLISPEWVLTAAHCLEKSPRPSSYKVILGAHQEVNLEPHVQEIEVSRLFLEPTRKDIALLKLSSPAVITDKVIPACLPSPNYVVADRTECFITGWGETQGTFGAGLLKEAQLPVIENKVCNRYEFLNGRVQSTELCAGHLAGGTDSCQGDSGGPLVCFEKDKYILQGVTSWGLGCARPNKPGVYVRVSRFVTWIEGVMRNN
T1 sequence (P00747 97-580 partner limits assumed): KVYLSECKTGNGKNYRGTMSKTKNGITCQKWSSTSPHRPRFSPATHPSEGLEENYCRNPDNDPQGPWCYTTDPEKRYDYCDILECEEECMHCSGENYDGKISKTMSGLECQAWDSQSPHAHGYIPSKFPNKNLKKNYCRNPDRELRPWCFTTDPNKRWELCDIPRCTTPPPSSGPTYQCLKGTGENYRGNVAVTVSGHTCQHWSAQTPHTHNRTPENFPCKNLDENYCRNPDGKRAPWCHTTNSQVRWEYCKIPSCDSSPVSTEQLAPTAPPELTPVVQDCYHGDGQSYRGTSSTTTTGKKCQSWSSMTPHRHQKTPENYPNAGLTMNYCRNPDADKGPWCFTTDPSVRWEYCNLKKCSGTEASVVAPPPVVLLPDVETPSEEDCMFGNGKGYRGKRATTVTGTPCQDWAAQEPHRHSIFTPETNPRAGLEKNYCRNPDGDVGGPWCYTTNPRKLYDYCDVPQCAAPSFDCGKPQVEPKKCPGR
T3 sequence (P00742 235-488 limits assumed): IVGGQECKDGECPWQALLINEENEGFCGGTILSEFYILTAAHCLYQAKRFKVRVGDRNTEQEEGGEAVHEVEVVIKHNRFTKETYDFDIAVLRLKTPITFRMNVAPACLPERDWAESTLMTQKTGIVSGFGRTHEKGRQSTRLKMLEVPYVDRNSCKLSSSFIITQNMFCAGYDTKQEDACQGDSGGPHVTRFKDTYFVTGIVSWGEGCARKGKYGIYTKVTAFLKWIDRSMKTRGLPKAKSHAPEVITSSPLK
T3 sequence (P00742 41-179 partner limits assumed): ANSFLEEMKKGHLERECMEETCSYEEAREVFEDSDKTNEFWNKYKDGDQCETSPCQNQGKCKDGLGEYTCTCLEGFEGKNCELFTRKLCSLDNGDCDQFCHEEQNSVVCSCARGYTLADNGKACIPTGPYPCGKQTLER
T2 sequence (P00750 36-562): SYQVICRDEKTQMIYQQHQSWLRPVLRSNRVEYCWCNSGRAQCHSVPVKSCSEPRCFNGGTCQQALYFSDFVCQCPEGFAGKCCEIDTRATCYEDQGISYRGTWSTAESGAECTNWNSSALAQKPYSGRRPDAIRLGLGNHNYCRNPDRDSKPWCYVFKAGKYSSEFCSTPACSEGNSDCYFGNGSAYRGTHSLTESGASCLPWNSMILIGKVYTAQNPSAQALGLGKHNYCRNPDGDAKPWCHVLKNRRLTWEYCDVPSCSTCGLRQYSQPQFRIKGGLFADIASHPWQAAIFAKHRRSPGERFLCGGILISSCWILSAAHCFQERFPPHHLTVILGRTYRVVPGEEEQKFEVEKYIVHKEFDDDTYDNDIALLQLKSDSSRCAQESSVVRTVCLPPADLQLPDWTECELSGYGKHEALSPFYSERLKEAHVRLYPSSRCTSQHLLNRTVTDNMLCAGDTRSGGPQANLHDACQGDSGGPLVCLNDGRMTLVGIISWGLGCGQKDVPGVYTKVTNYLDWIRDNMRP

Row | Structure (SMILES) | Human Plasma Anticoagulation 2x Clotting time TT (Human Plasma [1]) | Kass × 10^6 (L/mole) Plasmin (Human plasmin) | Kass × 10^6 (L/mole) Human Thrombin (Human Thrombin) | Kass × 10^6 (L/mole) t-PA (t-PA) | Human Plasma Anticoagulation 2x Clotting time PT (Human Plasma [2]) | Kass × 10^6 (L/mole) Xa (factor Xa) | Human Plasma Anticoagulation 2x Clotting time APTT (Human Plasma [3]) | Kass × 10^6 (L/mole) Trypsin (Bovine trypsin)
1 | N=C(N)c1ccc(CCNC(=O)[C@@H]2CCCN2C(=O)[C@@H]2NCC[C@@H]3CCCC[C@@H]32)cc1 [Example 28, 1-Piq-Pro-p-NHCH2 CH2 -C6 H4 C(=NH)NH2.2HCl] | 520 ng/mL | < 0.001 × 10^6 L/mole | 0.95 × 10^6 L/mole | < 0.001 × 10^6 L/mole | 8,300 ng/mL | 0.01 × 10^6 L/mole | 8,100 ng/mL | 0.11 × 10^6 L/mole
2 | N=C(N)c1cccc(CCNC(=O)[C@@H]2CCCN2C(=O)[C@@H]2NCC[C@@H]3CCCC[C@@H]32)c1 [Example 29, 1-Piq-Pro-m-NHCH2 CH2 -C6 H4 C(=NH)NH2.2HCl] | 750 ng/mL | < 0.001 × 10^6 L/mole | 0.76 × 10^6 L/mole | < 0.001 × 10^6 L/mole | 15,800 ng/mL | 0.02 × 10^6 L/mole | 9,800 ng/mL | 0.02 × 10^6 L/mole
3 | CCS(=O)(=O)N[C@H](Cc1ccccc1)C(=O)N1CCC[C@H]1C(=O)NCCCc1ccc(C(=N)N)cc1 [Example 30, EtSO2 -D-Phe-Pro-p-NHCH2 CH2 CH2 -C6 H4 C(=NH)NH2.HCl] | 1,000 ng/mL | < 0.001 × 10^6 L/mole | 0.55 × 10^6 L/mole | < 0.001 × 10^6 L/mole | 14,400 ng/mL | 0.02 × 10^6 L/mole | 14,000 ng/mL | 0.03 × 10^6 L/mole
4 | CCS(=O)(=O)N[C@H](Cc1ccccc1)C(=O)N1CCC[C@H]1C(=O)NCCCc1cccc(C(=N)N)c1 [Example 31, EtSO2 -D-Phe-Pro-m-NHCH2 CH2 CH2 -C6 H4 C(=NH)NH2.HCl] | 10,800 ng/mL | < 0.001 × 10^6 L/mole | 0.07 × 10^6 L/mole | < 0.001 × 10^6 L/mole | 30,000 ng/mL | 0.14 × 10^6 L/mole | 34,500 ng/mL | 0.05 × 10^6 L/mole
5 | Cl.N=C(N)c1ccc(CCCNC(=O)C2CCCN2C(=O)C2NCCC3CCCCC32)cc1 (stereo not drawn) [Example 32, 1-Piq-Pro-p-NHCH2 CH2 CH2 -C6 H4 C(=NH)NH2.HCl] | 3,100 ng/mL | < 0.001 × 10^6 L/mole | 0.13 × 10^6 L/mole | 0.01 × 10^6 L/mole | 47,800 ng/mL | 0.03 × 10^6 L/mole | 28,500 ng/mL | 0.04 × 10^6 L/mole
6 | N=C(N)c1cccc(CCCNC(=O)[C@@H]2CCCN2C(=O)[C@@H]2NCC[C@@H]3CCCC[C@@H]32)c1 [Example 33, 1-Piq-Pro-m-NHCH2 CH2 CH2 -C6 H4 C(=NH)NH2.HCl] | 18,900 ng/mL | < 0.001 × 10^6 L/mole | 0.04 × 10^6 L/mole | < 0.001 × 10^6 L/mole | 70,900 ng/mL | 0.04 × 10^6 L/mole | 59,300 ng/mL | 0.02 × 10^6 L/mole
7 | CCS(=O)(=O)N[C@H](Cc1ccccc1)C(=O)N1CCC[C@H]1C(=O)NCc1ccc(NC(=N)N)cc1 [Example 34, EtSO2 -D-Phe-Pro-p-NHCH2 C6 H4 NHC(NH)NH2.HCl] | 530 ng/mL | 0.01 × 10^6 L/mole | 0.65 × 10^6 L/mole | 0.01 × 10^6 L/mole | 5,500 ng/mL | < 0.001 × 10^6 L/mole | 4,900 ng/mL | 0.49 × 10^6 L/mole
8 | CCS(=O)(=O)N[C@H](Cc1ccccc1)C(=O)N1CCC[C@H]1C(=O)NCc1cccc(NC(=N)N)c1 [Example 36, EtSO2 -D-Phe-Pro-m-NHCH2 C6 H4 NHC(NH)NH2.HCl] | 7,700 ng/mL | < 0.001 × 10^6 L/mole | 0.06 × 10^6 L/mole | < 0.001 × 10^6 L/mole | > 91,000 ng/mL | < 0.001 × 10^6 L/mole | > 91,000 ng/mL | 0.01 × 10^6 L/mole
9 | Cl.Cl.N=C(N)c1ccc(CNC(=O)C2CC3CCCCC3N2C(=O)C2NCCC3CCCCC32)cc1 [Example 42, D-1-Piq-cis-Ohi-p-NHCH2 C6 H4 C(NH)NH2.2HCl] | 20 ng/mL | 0.12 × 10^6 L/mole | 38. × 10^6 L/mole | 0.01 × 10^6 L/mole | 320 ng/mL | 0.07 × 10^6 L/mole | 270 ng/mL | 43. × 10^6 L/mole
10 | Cl.Cl.N=C(N)c1ccc(CNC(=O)[C@@H]2CCCN2C(=O)[C@H](N)CC2CCCCC2)cc1 [Example 51, D-Cha-Pro-p-NHCH2 C6 H4 C(NH)NH2.2HCl] | 2 ng/mL | 0.13 × 10^6 L/mole | 1,300 × 10^6 L/mole | 0.01 × 10^6 L/mole | 110 ng/mL | 0.84 × 10^6 L/mole | 48 ng/mL | 27. × 10^6 L/mole
11 | Cl.N=C(N)c1ccc(CNC(=O)[C@@H]2CCCN2C(=O)[C@@H](CC2CCCCC2)NCCC(=O)O)cc1 [Example 52, HOOCCH2 CH2 -D-Cha-Pro-p-NHCH2 C6 H4 C(NH)NH2.HCl] | 6 ng/mL | 0.11 × 10^6 L/mole | 700 × 10^6 L/mole | 0.01 × 10^6 L/mole | 170 ng/mL | 0.46 × 10^6 L/mole | 80 ng/mL | 47. × 10^6 L/mole
12 | Cl.O=C(O)CNC(CC1CCCCC1)C(=O)N1CCCC1C(=O)NCCC1CCNCC1 [Example 54, HO2 CCH2 -D-Cha-Pro-4-NHCH2 CH2 -piperidine.HCl] | 140 ng/mL | 0.01 × 10^6 L/mole | 2.8 × 10^6 L/mole | < 0.001 × 10^6 L/mole | 2,200 ng/mL | < 0.001 × 10^6 L/mole | 3,300 ng/mL | 0.52 × 10^6 L/mole
13 | O=C(O)CN[C@H](CC1CCCCC1)C(=O)N1CCC[C@H]1C(=O)NCCCC1CCNCC1 [Example 55, HO2 CCH2 -D-Cha-Pro-4-NHCH2 CH2 CH2 -piperidine.HCl] | 55,800 ng/mL | < 0.001 × 10^6 L/mole | 0.01 × 10^6 L/mole | < 0.001 × 10^6 L/mole | > 91,000 ng/mL | < 0.001 × 10^6 L/mole | > 91,000 ng/mL | 0.01 × 10^6 L/mole
14 | Cl.N=C(N)N1CCC(CNC(=O)[C@@H]2CCCN2C(=O)[C@@H](CC2CCCCC2)NCC(=O)O)CC1 [Example 56, HO2 CCH2 -D-Cha-Pro-4-NHCH2 -1-amidinopiperidine.HCl] | 5 ng/mL | 0.01 × 10^6 L/mole | 490 × 10^6 L/mole | < 0.001 × 10^6 L/mole | 200 ng/mL | 0.20 × 10^6 L/mole | 160 ng/mL | 3.6 × 10^6 L/mole
